# Like-named read-outs stand apart in the source and are kept apart here. Square brackets hold non-standard residues; d marks the D form. Peptide text beside a SMILES is read from it. Orn = NCCC[C@H](N)C(=O)O
# Key:
# [1] = Toxicity to COS-1 cells, CellTiter Blue viability; assay type: cell-based; settings: African green monkey, resazurin (CellTiter Blue), read-out: Toxicity LC50, COS Cells
# Procedure: COS-1 cells were cultured in DMEM containing 0.9 g/L glucose, 0.12% NaHCO3, 10% fetal calf serum and 1% penicillin–streptomycin at 37 °C and under an atmosphere of 5% CO2 [95]. Twenty hours before the assay, the cells were transferred to 96-well plates at a density of 1.5 × 10^4 cells/well. The peptides from the dilution series were added to each well and incubated for 24 h. The cell viability was measured by adding 20 μL/well resazurin reagent (CellTiter Blue™), followed by four hours incubation at room temperature in the dark and measurement of the absorbance at 560 nm and 600 nm in the BioRad microplate reader.
# (§1) The data obtained from spectrophotometric measurement of the plates following the lactate dehydrogenase (Malstat) assay were converted to percentage growth inhibition using the data analysis method described by Rautenbach et al.. The background was obtained from control wells in which the parasites were killed with 100 µM GS while total growth was from the wells that were not submitted to peptides. The background for the hemolysis evaluation was from wells in which the uninfected erythrocytes were lysed using 100 µM GS while growth control was from the wells with uninfected erythrocytes that received no peptides. The percentage COS-1 cell death (CellTiter Blue™ assay) was similarly calculated from absorbance values. All the dose–response assay data were evaluated using GraphPad Prism 4.03 (GraphPad Software, San Diego, CA, USA) followed by non-linear regression and sigmoidal curves were fitted (having variable slope and a constant difference of 100 between the top and bottom plateau). Following calculation of the 50% P. falciparum inhibitory concentration (IC50), 50% hemolytic concentration (HC50) and 50% lethal concentration (LC50) for COS-1 cells.
# human erythrocytes = experiment: Hemolytic activity; assay type: cell-based; settings: 2% hematocrit, 1 h at 37 °C, ± SEM
# Procedure: To determine the hemolytic activity of the peptides, the duplicate 96-well plates with samples added to 90 μL 2% hematocrit per well were incubated for one hour at 37 °C and centrifuged using a swing-out rotor at 200× g for 3 min. The supernatant was diluted 1:8 in analytical quality water in separate 96-well plates and after mixing, the absorbance of the suspension was determined at 405 nm.
# as §1
# CQI P. falciparum D10 = settings: for nature of CQ-peptide interaction: at the lowest CQ ratio, D10
# Procedure: In order to determine the nature of Trc-CQ interaction, IC50 values were derived from dose–response curves of fixed ratios of Trc and CQ for fractional inhibition concentration (FIC) determination according to an adaptation of the methods by Chawira and Warhust and Fivelman et al..
# CQ at […] (2.0 µM) and 500.0 μM peptide were used to prepare doubling and quadrupling dilution ranges, respectively in supplemented RPMI-1640 culture medium used for culturing the P. falciparum, but lacking albumax II. These were then mixed in an chequerboard fashion to determine the 1:0; 0:1 1;1, 1:2; 1:5 and 1:10 ratios of CQ:peptide for combined IC50s. The CQ, peptide or drug:peptide combination (10 μL) was added to 90 μL of the cell suspensions, incubated for 48 h at 37 °C under an atmosphere of 3% CO2, 4% O2 and 93% N2 and analyzed for growth inhibition as previously described using the Malstat assay. The IC50 values and standard error of the mean for the various CQ-peptide combinations were determined from the dose–response curves plotted and analyzed using GraphPad Prism® 4.03 (GraphPad Software, San Diego, CA, USA). A minimum of three technical repeats and three biological repeats were carried out for each combination experiment.
# Two fractional inhibition concentration (FIC) values were calculated for each of the five CQ-peptide combination ratios, one for CQ and the other for the peptide according to Equations (1) and (2) below from Bell:FICCQ = IC50([CQ] in combination)/IC50CQ ([CQ] alone)(1) FICPeptide = IC50 ([Peptide] in combination)/IC50Peptide ([Peptide] alone)(2)
# The FIC values were used to compute the FIC index which is the sum of FICs of CQ and each peptide using Equation (3) below:FIC index = FICCQ + FICpeptide(3)
# The magnitude of the FICI determined the nature of the CQ-peptide interaction as being either synergistic (FICI < 1.0), antagonistic (FICI > 1.0) or additive (FICI = 1.0) 64–66. […] The shape of the isobolograms also provided an indication of the nature of the interactive effect of CQ and the peptides with a concave curve for synergy, a linear line for an additive to non-interactive effect or convex curve for antagonism with deviation of the curves from the additivity line indicating the strength of the interactive effect.
# P. falciparum D10 [2] = experiment: Parasite stage distribution, Giemsa staining and light microscopy; assay type: cell-based, Plasmodium falciparum; settings: 200 nM, synchronized trophozoite stage cultures, 0 to 48 h
# Procedure: For light microscopy, following addition of TpcC, aliquots were collected from the cultures at different time-points for preparation of Giemsa-stained blood smears. The assay was carried out in duplicate and lactate dehydrogenase activity of the residual cultures was determined after 48 h.
# P. falciparum D10 [3] = experiment: Super-resolution structured illumination fluorescence microscopy (SR-SIM) of parasite morphology; assay type: cell-based, Plasmodium falciparum
# Procedure: Prior to staining for fluorescence microscopy, the cultures were centrifuged at 300× g for 4 min, then the supernatant was discarded and cells were suspended to the same percentage hematocrit in a solution made of one part analytical quality water and three parts sterile PBS (pH 7.2–7.3) in order to reduce solute concentration.
# The fluorescence microscopy involved staining suspended cultures (TpcC treated and untreated) prepared as described above (except for not being synchronized within the last 48 h of culturing) with combinations of trypan blue (red fluorescence) and either SYTO® 9 green-fluorescent nucleic acid stain or LipidTOX™ neutral lipid stain (green fluorescence). To view the neutral lipids, the cells were stained with LipidTOX™ (stock solution dilution at 1:200), incubated for 30 min at room temperature before staining with trypan blue at final concentration of 0.002% v/v. For nucleic acid staining, the cells were stained with SYTO® 9 (stock solution dilution at 1:1000) and trypan blue at final concentration of 0.002% v/v and incubated at room temperature for 15 min. Super-resolution structured illumination (SR-SIM) fluorescence microscopy was carried out as follows: thin ([…]) z-stacks of high-resolution image frames were accumulated in 5 rotations using an alpha Plan-Apochromat 100×/1.46 oil DIC M27 ELYRA objective, employing an ELYRA S.1 (Carl Zeiss Microimaging) microscope equipped with a 488 nm laser (100 mW), 561 nm laser (100 mW) and Andor EM-CCD camera (iXon DU 885). Images were […] using ZEN software (black edition, 2011, version 7.04.287) based on a structured illumination algorithm. Image projections and animations were carried out on reconstructed super-resolution images in ZEN.
# [4] = CQ:peptide ratio 1:2 at IC50, D10
# [5] = CQ:peptide ratio 1:5 at IC50, D10
# [6] = CQ:peptide ratio 1:10 at IC50, D10
# [7] = CQ:peptide ratio 1:1 at IC50, D10
Compound,CC50 at 24 h [1],"HC50, Erythrocytes (human erythrocytes)",nature of CQ-peptide interaction (CQI P. falciparum D10),CQ FIC (CQI P. falciparum D10; [4]),CQ:Peptide FIC Index (CQI P. falciparum D10; [4]),Peptide FIC (CQI P. falciparum D10; [4]),CQ FIC (CQI P. falciparum D10; [5]),CQ:Peptide FIC Index (CQI P. falciparum D10; [5]),Peptide FIC (CQI P. falciparum D10; [5]),CQ FIC (CQI P. falciparum D10; [6]),CQ:Peptide FIC Index (CQI P. falciparum D10; [6]),Peptide FIC (CQI P. falciparum D10; [6]),effect on parasite stage progression (P. falciparum D10 [2]),permeabilization or lysis of parasite and erythrocyte membranes (trypan blue leakage) (P. falciparum D10 [3]; lethal concentration of 200 nM),chromatin morphology (SYTO9 nuclear staining) (P. falciparum D10 [3]; post 6 h treatment),"neutral lipid structures (LipidTOX stain) (P. falciparum D10 [3]; trophozoite stage cultures, after 5 h in culture)",CQ FIC (CQI P. falciparum D10; [7]),CQ:Peptide FIC Index (CQI P. falciparum D10; [7]),Peptide FIC (CQI P. falciparum D10; [7]),"CQ:Peptide FIC Index (CQI P. falciparum D10; CQ:peptide ratio 1:1 at IC50, D10, listed as Tyrocidine A)"
"CC(C)C[C@@H]1NC(=O)[C@H](CCCN)NC(=O)[C@H](C(C)C)NC(=O)[C@H](Cc2ccccc2)NC(=O)[C@H](CCC(N)=O)NC(=O)[C@H](CC(N)=O)NC(=O)[C@@H](Cc2ccccc2)NC(=O)[C@H](Cc2ccccc2)NC(=O)[C@@H]2CCCN2C(=O)[C@@H](Cc2ccccc2)NC1=O [PhcA, phenycidine A] (cyclo(FV[Orn]L[dF]PF[dF]NQ))",8 µM,7.1 ± 1.6 (8) μM,synergistic action,,,,,,,,,,,,,,,,,
"CC(C)C[C@@H]1NC(=O)[C@H](CCCN)NC(=O)[C@H](C(C)C)NC(=O)[C@H](Cc2c[nH]c3ccccc23)NC(=O)[C@H](CCC(N)=O)NC(=O)[C@H](CC(N)=O)NC(=O)[C@@H](Cc2c[nH]c3ccccc23)NC(=O)[C@H](Cc2c[nH]c3ccccc23)NC(=O)[C@@H]2CCCN2C(=O)[C@@H](Cc2ccccc2)NC1=O [TpcC, tryptocidine C] (cyclo(L[dF]PW[dW]NQWV[Orn]))",10 µM,9.1 ± 1.5 (4) μM,additive activity,0.36 ± 0.07,1.26 ± 0.36,0.90 ± 0.40,0.23 ± 0.08,1.47 ± 0.28,1.24 ± 0.26,0.08 ± 0.03,1.02 ± 0.17,0.93 ± 0.16,delay in the occurrence of the schizont stage,none of the parasite membranes or erythrocyte membrane was permeabilized or lysed,abnormality in the packing or compactness of the chromatin,the lipid structures were distorted and diffused,,,,
"CC(C)C[C@@H]1NC(=O)[C@H](CCCN)NC(=O)[C@H](C(C)C)NC(=O)[C@H](Cc2ccc(O)cc2)NC(=O)[C@H](CCC(N)=O)NC(=O)[C@H](CC(N)=O)NC(=O)[C@@H](Cc2ccccc2)NC(=O)[C@H](Cc2ccccc2)NC(=O)[C@@H]2CCCN2C(=O)[C@@H](Cc2ccccc2)NC1=O [TrcA, tyrocidine A] (cyclo(V[Orn]L[dF]PF[dF]NQY))",6 µM,,,0.66 ± 0.02,1.60 ± 0.20,0.95 ± 0.18,,,,0.13 ± 0.10,1.35 ± 0.37,1.21 ± 0.29,,,,,1.77 ± 0.29,> 3,1.99 ± 0.36,3.76 ± 0.65
